From patent US10273240B2, “Cortistatin analogues, syntheses, and uses thereof” (President and Fellows of Harvard College, priority 2015, dated 2019)
Where two headings read alike, the source gives them in different places.

What was measured:
Assay type in all cases: cell-based
[1] = system: K562; test: Cell growth assay, K562; settings: Homo sapiens
Procedure: (§1) All media was supplemented with 100 U/mL penicillin and 100 μg/mL streptomycin. Human cancer cell lines were grown in the following media: MV4; 11, K562, MOLM-14 in RPMI-1640, 10% FBS; SKNO-1 in RPMI-1640, 10% FBS, and 10 ng/mL GM-CSF; MV4;11 and K562 were from ATCC. SKNO-1 was from DSMZ.
(§2) Cell Culture. All media was supplemented with 100 U/mL penicillin and 100 μg/mL streptomycin. Human cancer cell lines were grown in the following media: MV4; 11, RS4; 11, K562, HEL, MOLM-14, MEG-01 in RPMI-1640, 10% FBS; SET-2 in RPMI-1640, 20% FBS; UKE-1 in RPMI-1640, 10% FBS, 10% horse serum and 1 μM hydrocortisone; SKNO-1 and TF-1 in RPMI-1640, 10% FBS, and 10 or 2 ng/mL GM-CSF, respectively; HaCaT in DMEM, 10% FBS; and HCT116 in McCoy's 5 A, 10% FBS (proliferation assay) or DMEM, 10% FBS (gene expression study). HepG2, MV4;11, RS4;11, MEG-01, TF-1, HCT116 and K562 were from ATCC. SKNO-1 was from DSMZ. HEL, UKE-1, and SET-2 were provided by Ross L. Levine and HaCaT, MV4;11-mCLP, and MOLM-14 by Van Wilson, Andrew L. Kung, and Scott A. Armstrong, respectively. MOLM-14 cells were authenticated by STR profiling and flow cytometry and all cell lines were routinely tested and found to be negative for mycoplasma.

[2] = system: SKNO-1; test: Cell growth assay, SKNO-1; settings: Homo sapiens
Procedure: as §1, §2

[3] = system: MOLM-14; test: Cell growth assay, MOLM-14; settings: Homo sapiens
Procedure: as §1, §2

[4] = system: MV4;11; test: Cell growth assay, MV4;11; settings: Homo sapiens
Procedure: as §1, §2

[5] = system: MEG-01; test: Cell growth assay, MEG-01; settings: Homo sapiens, MEG-01, 72 h, read-out: Mean GI50 (nM), MEG-01
Procedure: as §2

[6] = system: HEL; test: Cell growth assay, HEL; settings: Homo sapiens, 72 h, read-out: Mean GI50 (nM), HEL
Procedure: as §2

[7] = system: TF-1; test: Cell growth assay, TF-1; settings: Homo sapiens, TF-1, 72 h, read-out: Mean GI50 (nM), TF-1
Procedure: as §2

[8] = system: SET-2; test: Cell growth assay, SET-2; settings: Homo sapiens, SET-2, 72 h, read-out: Mean GI50 (nM), SET-2
Procedure: as §2

[9] = system: RS4;11; test: Cell growth assay, RS4;11; settings: Homo sapiens, RS4-11, 72 h, read-out: Mean GI50 (nM), RS4;11
Procedure: as §2

SMILES | GI50 ([1]; K562, 240 h, read-out: K562 GI50 day 10) | GI50 ([2]; SKNO-1, 240 h, read-out: SKNO-1 GI50 day 10) | GI50 ([3]; MOLM-14, 240 h, read-out: MOLM14 GI50 day 10) | GI50 ([4]; MV4-11, 240 h, read-out: MV4;11 GI50 day 10) | GI50 [5] | GI50 [6] | GI50 [7] | GI50 ([1]; K562, 72 h, I-BET151, after 3 days, read-out: Mean GI50 (nM), K562) | GI50 ([2]; SKNO-1, 72 h, I-BET151, after 3 days, read-out: Mean GI50 (nM), SKNO-1) | GI50 ([3]; MOLM-14, 72 h, I-BET151, after 3 days, read-out: Mean GI50 (nM), MOLM-14) | GI50 ([4]; MV4-11, 72 h, I-BET151, after 3 days, read-out: Mean GI50 (nM), MV4;11) | GI50 [8] | GI50 [9]
C[C@]12CC=C3C=C4CCC(=O)NC[C@]45CC[C@]3(O5)[C@@H]1CC[C@@H]2c1ccc2ccncc2c1 [Compound 15B] | > 1000 nM | 0.6 nM | 17.5 nM | 3.75 nM | – | – | – | – | – | – | – | – | –
COc1cc2c(cc1-c1c(C)noc1C)ncc1[nH]c(=O)n([C@H](C)c3ccccn3)c12 [I-BET151] | – | – | – | – | 375 nM | 200 nM | 163 nM | 750 nM | 50 nM | 18 nM | 20 nM | 245 nM | 200 nM
